system: BDNF; assay: Assay for BDNF expression in dopamine-reactive human cell line SH-SY5Y (Western blotting); type: cell-based; conditions: SH-SY5Y cells, 12 hrs treatment, FIG. 2
Description: SH-SY5Y cells were seeded at a density of 2×10^5 cells/well into 6-well plates (NUNC) and incubated at 34° C. for 12 hrs in a 5% CO2 incubator and then for an additional 12 hrs in the presence of one of NP 2 to 9 at a concentration of 1 pM, 10 pM, 100 pM, 1 nM, 10 nM, 100 nM, or 1 μM. The cells in each well were washed twice with 1 mL of 1×PBS […], treated with 10 μL of protease inhibitor (Amersham) per 1 mL of RIPA, and collected into 1.5 mL tubes using a cell lifter (Corning). After centrifugation at 4° C. and 9000 rpm for 5 min (MiCRO 17 TR, Hnil Science Industrial Co., Ltd.) to pelletize cell membranes, the supernatants containing proteins were transferred into new 1.5 mL tubes and quantitatively measured for protein level using a Bradford assay.
20 μL of each sample was loaded onto 15% acrylamide gel, prepared using a 1.5 mm Western blotting gel caster (Bio-Rad), and run for 2.5 hrs in the presence of an electric field of 100 V using an electrophoresis power supply (EPS 601, Amersham). The proteins run on the gel were transferred onto a PVDF membrane (Polyvinylidene Difluoride, Millipore) at 400 mA for 2.5 hrs in a transfer tank (Mighty small transphor, Amersham) using an electrophoresis power supply (EPS301, GE healthcare). The PVDF membrane was blocked for 1 hr with 7% skim milk (Difco™ Skim milk, BD) and incubated overnight with a mouse anti-human BDNF monoclonal antibody at a dilution ratio of 1:500. Thereafter, the membrane was washed for 2 hrs 0.05% TBST (Tris-Buffered Saline Tween 20) (this buffer was replaced every hour) and incubated for 1 hr with goat anti-mouse IgG:HRP (IgG:Horseradish Peroxidase Conjugate, SC-2005, Santa Cruz Biotechnology) at a ratio of 1:500. After washing the membrane with 0.05% TBST for 2 hrs (the buffer was replaced every hour), proteins were detected using a chemiluminescent HRP substrate kit (Millipore), and the results are shown in FIG. 2.

Substance	BDNF expression (relative level of BDNF to β-actin vs control)
Met-Asp-Gly [NP-5]	even a very small amount of NP-5 and NP-6 could augment BDNF expression
Met-Thr-Gly [NP-6]	even a very small amount of NP-5 and NP-6 could augment BDNF expression
Val-Gly [NP-9]	used at the same or less than was the amount of the tripeptides so as to induce BDNF expression

From patent publication US8557960B2, “Peptide for augmenting and expression of BDNF and pharmaceutical composition for prevention and treatment of neurodegenerative diseases including Alzheimer's disease or Parkinson's disease, comprising the same” (Sungkyunkwan University, priority 2009, dated 2013)
